Among the data in ChEMBL document CHEMBL1800013, “Small molecule inhibitors of SHP2 tyrosine phosphatase discovered by virtual screening” (Bioorg Med Chem Lett, 2011) are IC50 and inhibition values, retold here.

Calls of active or inactive are those of the source. The rule behind the calls is not given here. Where only a bound is given, the exact number is not on record here.

Test [1] concerns the target Tyrosine-protein phosphatase non-receptor type 6 (Homo sapiens, UniProt P29350). The experiment in a line: Inhibition of SHP1.
The target of test [2] is T1, Tyrosine-protein phosphatase non-receptor type 1 (Homo sapiens, UniProt P18031).
T1 sequence (P18031 whole entry): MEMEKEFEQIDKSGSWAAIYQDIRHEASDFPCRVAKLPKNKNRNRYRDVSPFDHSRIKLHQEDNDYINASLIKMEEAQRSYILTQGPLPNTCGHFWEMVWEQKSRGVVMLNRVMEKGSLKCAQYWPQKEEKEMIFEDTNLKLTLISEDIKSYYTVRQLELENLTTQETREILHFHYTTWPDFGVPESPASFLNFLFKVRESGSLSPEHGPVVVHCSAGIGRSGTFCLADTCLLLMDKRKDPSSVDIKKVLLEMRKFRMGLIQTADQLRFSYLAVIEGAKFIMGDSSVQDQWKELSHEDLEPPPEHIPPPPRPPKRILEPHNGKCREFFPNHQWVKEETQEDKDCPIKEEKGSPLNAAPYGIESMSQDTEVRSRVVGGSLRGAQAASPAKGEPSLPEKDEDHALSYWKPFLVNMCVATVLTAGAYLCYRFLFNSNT
Put plainly: Inhibition of PTP1B.

For test [3], the target named is T2, Tyrosine-protein phosphatase non-receptor type 2 (Homo sapiens, UniProt P17706).
T2 sequence (P17706 whole entry): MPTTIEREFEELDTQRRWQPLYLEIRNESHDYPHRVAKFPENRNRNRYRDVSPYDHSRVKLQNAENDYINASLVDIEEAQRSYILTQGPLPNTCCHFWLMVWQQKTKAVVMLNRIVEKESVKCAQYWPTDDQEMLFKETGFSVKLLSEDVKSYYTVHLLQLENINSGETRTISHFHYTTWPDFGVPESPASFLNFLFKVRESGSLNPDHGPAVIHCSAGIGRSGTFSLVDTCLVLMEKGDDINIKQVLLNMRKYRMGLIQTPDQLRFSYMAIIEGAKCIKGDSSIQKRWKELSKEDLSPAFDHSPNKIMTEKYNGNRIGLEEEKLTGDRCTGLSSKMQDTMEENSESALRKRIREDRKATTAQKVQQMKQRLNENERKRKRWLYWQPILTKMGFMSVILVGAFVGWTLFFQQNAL
The experiment in a line: Inhibition of TC-PTP.

For test [4], the target named is T3, Receptor-type tyrosine-protein phosphatase C (Homo sapiens, UniProt P08575).
T3 sequence (P08575 whole entry): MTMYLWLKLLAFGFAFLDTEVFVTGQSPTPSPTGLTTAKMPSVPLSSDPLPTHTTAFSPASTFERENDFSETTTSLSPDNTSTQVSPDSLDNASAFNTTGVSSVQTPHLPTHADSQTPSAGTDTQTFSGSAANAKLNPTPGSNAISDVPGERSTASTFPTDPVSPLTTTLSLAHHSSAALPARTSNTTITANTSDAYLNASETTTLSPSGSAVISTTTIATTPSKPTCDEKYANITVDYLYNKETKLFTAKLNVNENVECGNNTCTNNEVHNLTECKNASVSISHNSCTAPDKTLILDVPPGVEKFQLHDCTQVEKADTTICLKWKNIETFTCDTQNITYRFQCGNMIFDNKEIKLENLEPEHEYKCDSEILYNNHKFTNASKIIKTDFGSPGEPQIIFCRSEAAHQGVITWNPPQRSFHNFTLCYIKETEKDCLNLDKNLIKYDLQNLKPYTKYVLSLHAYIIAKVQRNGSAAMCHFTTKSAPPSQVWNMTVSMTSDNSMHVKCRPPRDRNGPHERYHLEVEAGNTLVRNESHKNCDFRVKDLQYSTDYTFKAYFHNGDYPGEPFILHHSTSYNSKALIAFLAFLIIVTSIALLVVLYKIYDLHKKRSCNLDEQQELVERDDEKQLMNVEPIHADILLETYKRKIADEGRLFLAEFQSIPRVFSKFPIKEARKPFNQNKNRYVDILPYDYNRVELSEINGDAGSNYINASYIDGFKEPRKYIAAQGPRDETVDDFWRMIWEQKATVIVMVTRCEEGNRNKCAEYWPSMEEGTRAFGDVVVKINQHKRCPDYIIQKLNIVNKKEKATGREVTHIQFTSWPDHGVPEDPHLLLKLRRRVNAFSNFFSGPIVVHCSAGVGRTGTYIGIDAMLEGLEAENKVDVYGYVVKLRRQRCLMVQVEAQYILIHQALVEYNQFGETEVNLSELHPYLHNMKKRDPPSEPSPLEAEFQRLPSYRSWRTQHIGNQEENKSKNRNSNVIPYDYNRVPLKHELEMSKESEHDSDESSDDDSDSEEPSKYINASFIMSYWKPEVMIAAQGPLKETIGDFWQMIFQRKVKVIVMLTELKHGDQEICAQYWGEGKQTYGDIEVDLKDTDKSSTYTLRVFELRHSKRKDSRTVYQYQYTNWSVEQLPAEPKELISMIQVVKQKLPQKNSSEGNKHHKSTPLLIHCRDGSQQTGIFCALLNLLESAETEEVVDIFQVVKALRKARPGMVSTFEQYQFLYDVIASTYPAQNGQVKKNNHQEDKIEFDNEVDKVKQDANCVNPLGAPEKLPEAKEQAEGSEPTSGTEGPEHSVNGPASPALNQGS
The experiment in a line: Inhibition of CD45.

Test [5] has as its target Receptor-type tyrosine-protein phosphatase F (Homo sapiens, UniProt P10586). Put plainly: Inhibition of LAR.
Test [6] addresses T4, Dual specificity protein phosphatase 22 (Homo sapiens, UniProt Q9NRW4).
T4 sequence (Q9NRW4 whole entry): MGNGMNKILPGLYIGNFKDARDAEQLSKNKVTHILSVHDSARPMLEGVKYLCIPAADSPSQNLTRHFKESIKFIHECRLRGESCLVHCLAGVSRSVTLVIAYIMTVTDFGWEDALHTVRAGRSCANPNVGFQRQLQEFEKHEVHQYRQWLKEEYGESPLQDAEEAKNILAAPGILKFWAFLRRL
The experiment in a line: Inhibition of VHX.

Test [7] deals with T5, Low molecular weight phosphotyrosine protein phosphatase (Homo sapiens, UniProt P24666).
T5 sequence (P24666 whole entry): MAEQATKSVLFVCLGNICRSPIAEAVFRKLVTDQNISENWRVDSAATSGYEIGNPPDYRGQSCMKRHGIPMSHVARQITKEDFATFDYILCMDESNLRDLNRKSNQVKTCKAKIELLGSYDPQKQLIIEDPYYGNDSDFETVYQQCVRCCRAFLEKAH
The experiment in a line: Inhibition of LMW-PTP.

Test [8] has as its target Receptor-type tyrosine-protein phosphatase alpha (Homo sapiens) (UniProt P18433). The experiment in a line: Inhibition of PTPalpha at 100 uM.
For test [9], the target named is Dual specificity protein phosphatase 3 (Homo sapiens) (UniProt P51452). Put plainly: Inhibition of VHR at 100 uM.
Dual specificity protein phosphatase 3 (Homo sapiens), sequence (P51452 whole entry, looked up): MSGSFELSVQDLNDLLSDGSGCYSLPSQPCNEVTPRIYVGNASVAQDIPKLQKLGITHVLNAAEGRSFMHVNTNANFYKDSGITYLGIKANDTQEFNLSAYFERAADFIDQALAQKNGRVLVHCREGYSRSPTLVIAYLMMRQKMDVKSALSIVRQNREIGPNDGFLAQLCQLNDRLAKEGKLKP
The nature of test [10]: Inhibition of Cdc14 at 100 uM.

Tyrosine-protein phosphatase non-receptor type 6, sequence (P29350 whole entry): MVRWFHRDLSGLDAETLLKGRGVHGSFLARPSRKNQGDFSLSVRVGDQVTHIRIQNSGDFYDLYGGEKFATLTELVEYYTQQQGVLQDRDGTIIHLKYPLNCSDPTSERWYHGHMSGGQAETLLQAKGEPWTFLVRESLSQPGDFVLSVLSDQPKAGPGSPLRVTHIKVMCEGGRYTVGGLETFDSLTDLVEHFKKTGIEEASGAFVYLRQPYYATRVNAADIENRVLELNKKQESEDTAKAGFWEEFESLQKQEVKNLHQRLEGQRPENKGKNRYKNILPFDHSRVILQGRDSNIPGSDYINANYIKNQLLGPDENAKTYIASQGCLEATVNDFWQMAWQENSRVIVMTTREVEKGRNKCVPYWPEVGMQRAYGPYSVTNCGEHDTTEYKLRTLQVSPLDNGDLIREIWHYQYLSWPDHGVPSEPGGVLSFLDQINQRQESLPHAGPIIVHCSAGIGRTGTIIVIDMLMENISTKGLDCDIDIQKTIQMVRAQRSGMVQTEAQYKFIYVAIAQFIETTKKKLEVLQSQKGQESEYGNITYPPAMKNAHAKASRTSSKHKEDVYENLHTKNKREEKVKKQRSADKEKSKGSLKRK
Receptor-type tyrosine-protein phosphatase alpha (Homo sapiens), sequence (P18433 20-802 limits assumed): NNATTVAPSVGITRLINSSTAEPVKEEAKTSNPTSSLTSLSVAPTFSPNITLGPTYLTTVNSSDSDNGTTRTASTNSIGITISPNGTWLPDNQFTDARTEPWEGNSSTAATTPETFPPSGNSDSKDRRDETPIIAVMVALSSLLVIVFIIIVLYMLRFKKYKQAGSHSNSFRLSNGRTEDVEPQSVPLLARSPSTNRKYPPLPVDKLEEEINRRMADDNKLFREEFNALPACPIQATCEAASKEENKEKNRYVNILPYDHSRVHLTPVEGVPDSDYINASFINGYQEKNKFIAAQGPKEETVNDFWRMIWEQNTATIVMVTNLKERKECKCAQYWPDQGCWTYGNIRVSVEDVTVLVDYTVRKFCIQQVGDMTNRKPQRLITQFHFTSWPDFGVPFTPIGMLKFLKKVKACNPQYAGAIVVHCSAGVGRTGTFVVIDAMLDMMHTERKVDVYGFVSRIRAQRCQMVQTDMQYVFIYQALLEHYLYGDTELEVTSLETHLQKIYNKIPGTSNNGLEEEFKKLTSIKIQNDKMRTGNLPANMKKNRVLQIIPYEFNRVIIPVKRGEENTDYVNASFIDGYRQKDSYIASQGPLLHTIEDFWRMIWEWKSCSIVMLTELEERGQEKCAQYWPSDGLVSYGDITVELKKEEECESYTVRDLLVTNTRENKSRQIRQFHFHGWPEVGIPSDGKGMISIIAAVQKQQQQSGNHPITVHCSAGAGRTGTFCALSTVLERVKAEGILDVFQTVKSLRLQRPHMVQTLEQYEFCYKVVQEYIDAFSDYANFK
Receptor-type tyrosine-protein phosphatase F, sequence (P10586 whole entry): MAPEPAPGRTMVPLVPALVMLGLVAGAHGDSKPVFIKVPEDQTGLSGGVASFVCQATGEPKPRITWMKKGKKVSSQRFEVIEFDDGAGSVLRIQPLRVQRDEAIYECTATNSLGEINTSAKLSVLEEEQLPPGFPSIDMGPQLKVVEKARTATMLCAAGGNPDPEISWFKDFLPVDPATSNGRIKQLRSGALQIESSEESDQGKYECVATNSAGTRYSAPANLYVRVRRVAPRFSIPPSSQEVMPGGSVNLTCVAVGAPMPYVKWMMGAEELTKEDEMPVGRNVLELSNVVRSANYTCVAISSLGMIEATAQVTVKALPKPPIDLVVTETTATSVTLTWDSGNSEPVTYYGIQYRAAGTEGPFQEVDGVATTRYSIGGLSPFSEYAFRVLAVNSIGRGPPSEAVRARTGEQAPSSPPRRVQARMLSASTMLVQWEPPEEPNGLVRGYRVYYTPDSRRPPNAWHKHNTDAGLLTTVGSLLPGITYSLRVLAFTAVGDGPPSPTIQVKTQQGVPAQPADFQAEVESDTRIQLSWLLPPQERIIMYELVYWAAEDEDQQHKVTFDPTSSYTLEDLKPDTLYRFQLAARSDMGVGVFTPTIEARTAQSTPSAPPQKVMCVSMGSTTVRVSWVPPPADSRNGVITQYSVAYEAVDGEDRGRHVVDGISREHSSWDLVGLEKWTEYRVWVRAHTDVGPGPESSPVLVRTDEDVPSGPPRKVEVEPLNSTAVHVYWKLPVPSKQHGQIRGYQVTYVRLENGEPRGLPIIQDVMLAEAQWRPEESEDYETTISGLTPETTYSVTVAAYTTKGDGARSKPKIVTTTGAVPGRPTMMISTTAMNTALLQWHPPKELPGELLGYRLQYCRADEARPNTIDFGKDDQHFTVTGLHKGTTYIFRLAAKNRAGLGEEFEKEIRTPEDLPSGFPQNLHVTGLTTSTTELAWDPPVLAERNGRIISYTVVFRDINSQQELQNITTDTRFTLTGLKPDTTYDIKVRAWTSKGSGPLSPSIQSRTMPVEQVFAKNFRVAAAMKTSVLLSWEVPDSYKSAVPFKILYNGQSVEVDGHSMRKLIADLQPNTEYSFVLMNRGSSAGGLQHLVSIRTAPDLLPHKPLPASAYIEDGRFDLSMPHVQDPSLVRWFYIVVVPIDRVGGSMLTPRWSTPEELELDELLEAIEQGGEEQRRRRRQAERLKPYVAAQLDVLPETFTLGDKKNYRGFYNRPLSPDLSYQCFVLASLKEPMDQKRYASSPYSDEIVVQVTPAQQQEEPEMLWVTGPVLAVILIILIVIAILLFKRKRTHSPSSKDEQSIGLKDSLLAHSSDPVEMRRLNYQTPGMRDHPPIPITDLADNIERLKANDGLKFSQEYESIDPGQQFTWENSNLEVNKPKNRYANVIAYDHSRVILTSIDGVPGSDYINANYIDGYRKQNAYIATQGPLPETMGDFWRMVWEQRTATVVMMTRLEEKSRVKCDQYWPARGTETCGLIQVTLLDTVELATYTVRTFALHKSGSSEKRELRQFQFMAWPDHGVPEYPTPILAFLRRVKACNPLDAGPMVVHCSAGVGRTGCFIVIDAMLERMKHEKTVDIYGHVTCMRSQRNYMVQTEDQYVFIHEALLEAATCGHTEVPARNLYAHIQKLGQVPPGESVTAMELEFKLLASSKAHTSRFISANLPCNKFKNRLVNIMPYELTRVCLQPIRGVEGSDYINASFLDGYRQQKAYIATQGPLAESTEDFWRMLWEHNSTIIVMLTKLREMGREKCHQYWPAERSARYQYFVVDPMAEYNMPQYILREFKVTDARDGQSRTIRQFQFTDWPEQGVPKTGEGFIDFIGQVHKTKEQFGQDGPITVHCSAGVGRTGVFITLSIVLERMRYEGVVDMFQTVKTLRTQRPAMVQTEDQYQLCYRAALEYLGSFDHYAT

For the molecule `Cc1cc(S(=O)(=O)O)c(S(=O)(=O)O)cc1N1N=C(C(=O)O)CC1=O`, the IC50 in test [1] was 14 µM; in test [2], 118 µM; in test [3], above 100 µM; in test [4] it was above 100 µM; in test [5] it was above 100 µM; in test [6], above 100 µM. The molecule also gave a half-maximal inhibitory concentration (IC50) in test [7] above 100 µM. In addition, the inhibition result in [8], in test [9] and in test [10] was “inactive” throughout.

For orientation: IC50 means the concentration at which inhibition is half-maximal. Read a low IC50 as greater potency in that assay.
